Measurements taken from patent publication US20260256816A1, “PHARMACEUTICAL COMPOSITION FOR PREVENTING OR TREATING BRAIN TUMOR” (ASTRION INC., priority 2023, published 2026).

Legend:
U87-MG cells [1] = assay: Matrigel Transwell invasion assay (metastasis inhibition); assay type: cell-based, human; conditions: for degree of penetration into Matrigel compared to the untreated control: 24 hours
Description: A human glioblastoma cell line U87-MG was seeded at a density of 8×10^4 cells/well on Matrigel-coated filters (Transwell invasion chambers, Corning), and the cells were then treated with the compound (AON-MG23-01 or AON-MG23-02; each at 0, 1, 2, and 4 μM) of the present invention, and cultured at 37° C. in a CO2 incubator for 24 hours. After the culturing was completed, the cells were fixed and stained using the Diff-Quick Stain kit (Sysmex, Kobe, Japan). Images of the stained cells were taken under a microscope, the cells were counted using Image J software, and statistical analysis was then performed.
A human glioblastoma cell line U87-MG was seeded at a density of 6×10^4 cells/well on the top of a Matrigel-coated filter (Transwell invasion chambers, Corning), treated with 4 μM of the compound AON-MG23-02 of the present invention, 4 μM of the EGFR inhibitor Osimertinib, 100 μM of the ANO1 inhibitor CaCCinh-A01, or a combination of 4 μM of Osimertinib and 100 μM of CaCCinh-A01, and then cultured at 37° C. in a CO2 incubator for 16 hours. After the culturing was completed, the cells were fixed and stained using a Diff-Quick stain kit (Sysmex, Kobe, Japan). Images of the stained cells were taken under a microscope, the cells were counted using Image J software, and statistical analysis was then performed.
A human glioblastoma cell line U87-MG was seeded at a density of 8×10^4 cells/well on the top of a Matrigel-coated filter (Transwell invasion chambers, Corning), and then treated with 0, 8, 16, and 32 μM of each of the compound derivatives AON-MG23-05, AON-MG23-06, AON-MG23-07, and AON-MG23-08 of the present invention, and cultured at 37° C. in a CO2 incubator for 24 hours. After the culturing was completed, the cells were fixed and stained using a Diff-Quick stain kit (Sysmex, Kobe, Japan). Images of the stained cells were taken under a microscope, the cells were counted using Image J software, and statistical analysis was then performed.

ANO1 = assay: Western blot of ANO1 protein expression in glioblastoma cell line; assay type: cell-based, human; conditions: U87-MG, 48 hours; for expression of ANO1 protein compared to the untreated control: 0, 8, 16, 32 μM, FIGS. 9A to 9D
Description: (§1) It was determined whether the compound of the present invention affects the expression of ANO1 and EGFR proteins in a glioblastoma cell line. The human glioblastoma cell line U87-MG was seeded at a density of 1×10^6 cells in a 60 mm dish, and cultured for 24 hours, and the cells were then treated with the compound (AON-MG23-01 or AON-MG23-02; each at 0, 1, 2, and 4 μM) of the present invention, and cultured for 48 hours. The cultured cells were harvested and the harvested cells were lysed for Western blotting. An anti-ANO1 antibody (Abcam, ab53212), an anti-pEGFR antibody (Cell Signaling, #4407S), an anti-EGFR antibody (Cell Signaling, #4267S), and an anti-α-tubulin antibody (Santacruz, #SC-5286) were used as the antibodies for Western blotting. Protein concentration was quantified using the BSA method (a protein quantitation assay, a bovine serum albumin assay) (Pierce, Cat. 23225). After the cells were lysed, an equal amount (10 μg) of the proteins obtained from the lysed cells was subjected to 10% SDS-PAGE to separate the proteins depending on their molecular weights, transferred to a PVDF membrane (Bio-Rad), and then treated with a blocking buffer (5% skim milk in a Tris-buffered saline (TBS) buffer containing 0.1% Tween 20; TBS-T) at room temperature for an hour. Thereafter, the PVDF membrane was treated with the primary antibody, and reacted at 4° C. for 16 hours. […] The amount of each protein was quantified and analyzed using Image J software.
(§2) The inhibitory effects of the compound AON-MG23-02 of the present invention, the EGFR inhibitor Osimertinib, and the ANO1 inhibitor CaCCinh-A01 on the expression of ANO1, EGFR, and pEGFR proteins in a glioblastoma cell line were compared. […] Protein concentration was quantified using the BSA method (a protein quantitation assay, a bovine serum albumin assay) (Pierce, Cat. 23225). […] The amount of each protein was quantified and analyzed using Image J software. […]

EGFR = assay: Western blot of EGFR protein expression in glioblastoma cell line; assay type: cell-based, human; conditions: U87-MG, 48 hours; for expression of EGFR protein compared to the untreated control: 0, 8, 16, 32 μM, FIGS. 9A to 9D
Description: as §1, §2

U87-MG cells [2] = assay: CCK assay, cell proliferation of human glioblastoma cells; assay type: cell-based; conditions: 0, 1, 2, 4 μM, 48 hours, FIG. 2
Description: Human glioblastoma cell line U87-MG cells were seeded at a density of 1×10^4 cells/well in a 96-well plate and cultured for 24 hours. Thereafter, the cells were treated with DMSO as a control and the compound AON-MG23-01 or AON-MG23-02 of the present invention, and then cultured for 48 hours. The compound of the present invention was treated at various concentrations of 0, 1, 2, and 4 μM. 10 μL of a CCK reagent was added and reacted for an hour, and the absorbance was then measured at 450 nm.

U87-MG cells [3] = assay: Cell migration assay (SPLScar Block); assay type: cell-based; conditions: Homo sapiens, U-87 MG, 24 hours, FIG. 3, read-out: inhibition of cell migration compared to the untreated control
Description: Human glioblastoma cell line U87-MG cells were seeded at a density of 8×10^4 cells/well on a SPLScar Block (SPL) plate and cultured for 24 hours. After 24 hours, the block was removed, and the cells were treated with the compound AON-MG23-01 or AON-MG23-02 of the present invention, and cultured at 37° C. in a CO2 incubator for 24 hours. The compound of the present invention was treated at concentrations of 0, 1, 2, and 4 μM. Images were taken before and after culture, and the distance of cell migration was measured using Image J software. Based on the results, whether the cell migration was inhibited was analyzed.

pEGFR = assay: Western blot of pEGFR protein expression in glioblastoma cell line; assay type: cell-based, human; conditions: U87-MG; 4 μM; 48 hours; vs 2 μM Osimertinib, 100 μM CaCCinh-A01, combination; FIGS. 8A, 8B
Description: The inhibitory effects of the compound AON-MG23-02 of the present invention, the EGFR inhibitor Osimertinib, and the ANO1 inhibitor CaCCinh-A01 on the expression of ANO1, EGFR, and pEGFR proteins in a glioblastoma cell line were compared. A human glioblastoma cell line U87-MG was seeded at a density of 100×10^4 cells/dish in a 60 mm dish, and cultured for 24 hours. Thereafter, the cells were treated with 4 μM of AON-MG23-02, 2 μM of the EGFR inhibitor Osimertinib, 100 μM of the ANO1 inhibitor CaCCinh-A01, or a combination of 2 μM of Osimertinib and 100 μM of CaCCinh-A01, and cultured for 48 hours. The cultured cells were harvested and the harvested cells were lysed for Western blotting. An anti-ANO1 antibody (Abcam, ab53212), an anti-pEGFR antibody (Cell Signaling, #4407S), an anti-EGFR antibody (Cell Signaling, #4267S), and an anti-ACTIN antibody (sigma, #A2066) were used as antibodies for Western blotting. Protein concentration was quantified using the BSA method (a protein quantitation assay, a bovine serum albumin assay) (Pierce, Cat. 23225). […] The amount of each protein was quantified and analyzed using Image J software.

[4] = 0, 8, 16, 32 μM, FIGS. 10A, 10B
[5] = 4 μM, vs 2 μM Osimertinib, 100 μM CaCCinh-A01, combination, FIGS. 8A, 8B

SMILES: O=C1c2ccccc2CN1Cc1ccc(CCN(CCO)Cc2ccc3ccccc3c2)cc1 [AON-MG23-05, 2-(4-(2-((2-hydroxyethyl)(naphthalen-2-ylmethyl)amino)ethyl)benzyl)isoindolin-1-one]
- degree of penetration into Matrigel compared to the untreated control (U87-MG cells [1]; [4]): reduced degree of penetration into Matrigel
- expression of ANO1 protein compared to the untreated control (ANO1): reduced expression
- expression of EGFR protein compared to the untreated control (EGFR): reduced expression

SMILES: O=C1c2ccccc2CN1Cc1ccc(CCP(=O)(Cc2ccc3ccccc3c2)Cc2ccc3ccccc3c2)cc1 [AON-MG23-07, 2-(4-(2-(bis(naphthalen-2-ylmethyl)phosphoryl)ethyl)benzyl)isoindolin-1-one]
- degree of penetration into Matrigel compared to the untreated control (U87-MG cells [1]; [4]): reduced degree of penetration into Matrigel

SMILES: CCN(Cc1ccc2ccccc2c1)CC(O)c1ccc(CN2Cc3ccccc3C2=O)cc1 (stereo not drawn) [AON-MG23-06, 2-(4-(2-(ethyl(naphthalen-2-ylmethyl)amino)-1-hydroxyethyl)benzyl)isoindolin-1-one]
- degree of penetration into Matrigel compared to the untreated control (U87-MG cells [1]; [4]): reduced degree of penetration into Matrigel

SMILES: NC(=O)N(CCc1ccc(CN2Cc3ccccc3C2=O)cc1)Cc1ccc2ccccc2c1 [AON-MG23-08, 1-(naphthalen-2-ylmethyl)-1-(4-((1-oxoisoindolin-2-yl)methyl)phenethyl)urea]
- degree of penetration into Matrigel compared to the untreated control (U87-MG cells [1]; [4]): reduced degree of penetration into Matrigel
- expression of ANO1 protein compared to the untreated control (ANO1): reduced expression
- expression of EGFR protein compared to the untreated control (EGFR): reduced expression

SMILES: COc1cc(N2CCC(N3CCN(C)CC3)CC2)ccc1Nc1ncc(Cl)c(Nc2ccccc2N(C2CC2)S(C)(=O)=O)n1 [AON-MG23-01, N-(2-((5-chloro-2-((2-methoxy-4-(4-(4-methylpiperazin-1-yl)piperidin-1-yl)phenyl)amino)pyrimidin-4-yl)amino)phenyl)-N-cyclopropylmethanesulfonamide]
- proliferation of U87-MG cells (CCK assay) (U87-MG cells [2]): inhibits the proliferation of U87-MG cells
- inhibition at 4 µM (U87-MG cells [3]): > 65%
- degree of penetration into Matrigel compared to the untreated control (U87-MG cells [1]; 0, 1, 2, 4 μM, FIG. 4): reduced degree of penetration into Matrigel

SMILES: COc1cc(N2CCC(N(C)C)CC2)ccc1Nc1ncc(Cl)c(Nc2ccccc2N(C2CC2)S(C)(=O)=O)n1 [AON-MG23-02, N-(2-((5-chloro-2-((4-(4-(dimethylamino)piperidin-1-yl)-2-methoxyphenyl)amino)pyrimidin-4-yl)amino)phenyl)-N-cyclopropylmethanesulfonamide]
- proliferation of U87-MG cells (CCK assay) (U87-MG cells [2]): inhibits the proliferation of U87-MG cells
- inhibition at 4 µM (U87-MG cells [3]): > 65%
- degree of penetration into Matrigel compared to the untreated control (U87-MG cells [1]; 0, 1, 2, 4 μM, FIG. 4): reduced degree of penetration into Matrigel
- degree of penetration into Matrigel compared to untreated control, EGFR inhibitor-treated group and ANO1 inhibitor-treated group (U87-MG cells [1]; 4 μM, 16 hours, vs 4 μM Osimertinib, 100 μM CaCCinh-A01, FIGS. 7A, 7B): reduced degree of penetration into Matrigel
- expression of ANO1 protein compared to untreated control, EGFR inhibitor, ANO1 inhibitor and combination groups (ANO1; [5]): reduces the expression
- expression of EGFR protein compared to untreated control, EGFR inhibitor, ANO1 inhibitor and combination groups (EGFR; [5]): reduces the expression
- expression of pEGFR protein compared to untreated control, EGFR inhibitor, ANO1 inhibitor and combination groups (pEGFR): reduces the expression
